Results reported in patent US20230085307A1, “PYRIDAZINONE COMPOUND AND HERBICIDE” (NISSAN CHEMICAL CORPORATION, priority 2019, published 2023).

What follows are compounds tested on oval-leafed pondweed (assay: Test Example 1: herbicidal activity, application before weed generation under submerged conditions (Table 16, symbol C)). Conditions: 320 g/ha applied herbicide.
Format: in vivo, oval-leafed pondweed (Monochoria vaginalis)
Summary of the method: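 Alluvial soil was flooded to 4 cm depth, weed seeds were sown mixed and 2.5-leaf rice seedlings were transplanted. On sowing day, the compound's emulsion, diluted in water to a set dose, was applied to the water surface. Plants grew at 25–30 °C and were scored 0–5 after three weeks.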

| SMILES | Herbicidal effect on C: oval-leafed pondweed (grade 0-5) |
| --- | --- |
| Cc1nn(C)c(=O)c(-c2c(-c3ccc4c(c3)CCO4)sc3ccccc23)c1O [1-101] | 5 (Herbicidal rate of 90% or more (almost completely withered)) |
| CCCC(=O)Oc1c(C)nn(C)c(=O)c1-c1c(-c2ccc3c(c2)CCO3)sc2ccccc12 [1-102] | 4 (Herbicidal rate of 70% or more and less than 90%) |

These compounds were tested on Japanese bulrush (assay: Test Example 2: herbicidal activity, application during weed generation under submerged conditions (Table 17, symbol B)). Conditions: AAH 320 g/ha; application during weed generation, submerged conditions.
Format: in vivo, Japanese bulrush (Schoenoplectus juncoides)
Summary of the method: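 3-wk visual-criteria score after one water-surface dose. Emulsion formulation, water-diluted to set rate; applied at 1–2 leaf stage; alluvial soil, 4 cm standing water; seeds co-sown; greenhouse 25–30° C.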

| SMILES | herbicidal effect rating, B: Japanese bulrush |
| --- | --- |
| Cc1nn(C)c(=O)c(-c2c(-c3ccc4c(c3)CCO4)sc3ccccc23)c1O [1-101] | 5 (Herbicidal rate of 90% or more (almost completely withered)) |
| CCCC(=O)Oc1c(C)nn(C)c(=O)c1-c1c(-c2ccc3c(c2)CCO3)sc2ccccc12 [1-102] | 5 (Herbicidal rate of 90% or more (almost completely withered)) |

What follows are compounds tested on southern crabgrass (assay: Test Example 4: herbicidal effect by soil treatment (Table 19, symbol F)). Conditions: amount of applied herbicide 320 g/ha.
Format: in vivo, southern crabgrass (Digitaria ciliaris)
Summary of the method: (§1)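 Seeds were sown in sterilized diluvial soil and covered with about 1.5 cm of soil. An emulsion formulation diluted with water to a predetermined herbicide amount was sprayed evenly onto the soil surface. Plants grew in a greenhouse at 25° C. to 30° C., and the effect was scored three weeks after application using criteria from an earlier test.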

| SMILES | herbicidal effect rating, F: southern crabgrass |
| --- | --- |
| Cc1nn(C)c(=O)c(-c2c(-c3ccc4c(c3)CCO4)sc3ccccc23)c1O [1-101] | 3 (Herbicidal rate of 40% or more and less than 70%) |
| CCCC(=O)Oc1c(C)nn(C)c(=O)c1-c1c(-c2ccc3c(c2)CCO3)sc2ccccc12 [1-102] | 2 (Herbicidal rate of 20% or more and less than 40%) |

The compounds below were run on green foxtail (assay: Test Example 4: herbicidal effect by soil treatment (Table 19, symbol G)). Conditions: amount of applied herbicide 320 g/ha.
Format: in vivo, green foxtail (Setaria viridis)
Summary of the method: as §1

| SMILES | herbicidal effect rating, G: green foxtail |
| --- | --- |
| Cc1nn(C)c(=O)c(-c2c(-c3ccc4c(c3)CCO4)sc3ccccc23)c1O [1-101] | 5 (Herbicidal rate of 90% or more (almost completely withered)) |
| CCCC(=O)Oc1c(C)nn(C)c(=O)c1-c1c(-c2ccc3c(c2)CCO3)sc2ccccc12 [1-102] | 5 (Herbicidal rate of 90% or more (almost completely withered)) |

What follows are compounds tested on barnyard grass (assay: Test Example 4: herbicidal effect by soil treatment (Table 19, symbol H)). Conditions: amount of applied herbicide 320 g/ha.
Format: in vivo, barnyard grass (Echinochloa crus-galli)
Summary of the method: as §1

| SMILES | herbicidal effect rating, H: barnyard grass |
| --- | --- |
| Cc1nn(C)c(=O)c(-c2c(-c3ccc4c(c3)CCO4)sc3ccccc23)c1O [1-101] | 5 (Herbicidal rate of 90% or more (almost completely withered)) |
| CCCC(=O)Oc1c(C)nn(C)c(=O)c1-c1c(-c2ccc3c(c2)CCO3)sc2ccccc12 [1-102] | 3 (Herbicidal rate of 40% or more and less than 70%) |

The compounds below were run on wild oat (assay: Test Example 4: herbicidal effect by soil treatment (Table 19, symbol I)). Conditions: amount of applied herbicide 320 g/ha.
Format: in vivo, wild oat (Avena fatua)
Summary of the method: as §1

| SMILES | herbicidal effect rating, I: wild oat |
| --- | --- |
| Cc1nn(C)c(=O)c(-c2c(-c3ccc4c(c3)CCO4)sc3ccccc23)c1O [1-101] | 0 (Herbicidal rate of 5% or less (almost no effect)) |
| CCCC(=O)Oc1c(C)nn(C)c(=O)c1-c1c(-c2ccc3c(c2)CCO3)sc2ccccc12 [1-102] | 1 (Herbicidal rate of 5% or more and less than 20%) |

What follows are compounds tested on blackgrass (assay: Test Example 4: herbicidal effect by soil treatment (Table 19, symbol J)). Conditions: amount of applied herbicide 320 g/ha.
Format: in vivo, blackgrass (Alopecurus myosuroides)
Summary of the method: as §1

| SMILES | herbicidal effect rating, J: blackgrass |
| --- | --- |
| Cc1nn(C)c(=O)c(-c2c(-c3ccc4c(c3)CCO4)sc3ccccc23)c1O [1-101] | 0 (Herbicidal rate of 5% or less (almost no effect)) |
| CCCC(=O)Oc1c(C)nn(C)c(=O)c1-c1c(-c2ccc3c(c2)CCO3)sc2ccccc12 [1-102] | 0 (Herbicidal rate of 5% or less (almost no effect)) |

These compounds were tested on velvetleaf (assay: Test Example 4: herbicidal effect by soil treatment (Table 19, symbol M)). Conditions: amount of applied herbicide 320 g/ha.
Format: in vivo, velvetleaf (Abutilon theophrasti)
Summary of the method: as §1

| SMILES | herbicidal effect rating, M: velvetleaf |
| --- | --- |
| Cc1nn(C)c(=O)c(-c2c(-c3ccc4c(c3)CCO4)sc3ccccc23)c1O [1-101] | 0 (Herbicidal rate of 5% or less (almost no effect)) |
| CCCC(=O)Oc1c(C)nn(C)c(=O)c1-c1c(-c2ccc3c(c2)CCO3)sc2ccccc12 [1-102] | 1 (Herbicidal rate of 5% or more and less than 20%) |

What follows are compounds tested on lambsquarters (assay: Test Example 4: herbicidal effect by soil treatment (Table 19, symbol O)). Conditions: amount of applied herbicide 320 g/ha.
Format: in vivo, lambsquarters (Chenopodium album)
Summary of the method: as §1

| SMILES | herbicidal effect rating, O: lambsquarters |
| --- | --- |
| Cc1nn(C)c(=O)c(-c2c(-c3ccc4c(c3)CCO4)sc3ccccc23)c1O [1-101] | 5 (Herbicidal rate of 90% or more (almost completely withered)) |
| CCCC(=O)Oc1c(C)nn(C)c(=O)c1-c1c(-c2ccc3c(c2)CCO3)sc2ccccc12 [1-102] | 4 (Herbicidal rate of 70% or more and less than 90%) |

These compounds were tested on chickweed (assay: Test Example 4: herbicidal effect by soil treatment (Table 19, symbol P)). Conditions: amount of applied herbicide 320 g/ha.
Format: in vivo, common chickweed (Stellaria media)
Summary of the method: as §1

| SMILES | herbicidal effect rating, P: chickweed |
| --- | --- |
| Cc1nn(C)c(=O)c(-c2c(-c3ccc4c(c3)CCO4)sc3ccccc23)c1O [1-101] | 5 (Herbicidal rate of 90% or more (almost completely withered)) |
| CCCC(=O)Oc1c(C)nn(C)c(=O)c1-c1c(-c2ccc3c(c2)CCO3)sc2ccccc12 [1-102] | 5 (Herbicidal rate of 90% or more (almost completely withered)) |

The compounds below were run on persian speedwell (assay: Test Example 4: herbicidal effect by soil treatment (Table 19, symbol R)). Conditions: amount of applied herbicide 320 g/ha.
Format: in vivo, Persian speedwell (Veronica persica)
Summary of the method: as §1

| SMILES | herbicidal effect rating, R: persian speedwell |
| --- | --- |
| Cc1nn(C)c(=O)c(-c2c(-c3ccc4c(c3)CCO4)sc3ccccc23)c1O [1-101] | 5 (Herbicidal rate of 90% or more (almost completely withered)) |
| CCCC(=O)Oc1c(C)nn(C)c(=O)c1-c1c(-c2ccc3c(c2)CCO3)sc2ccccc12 [1-102] | 5 (Herbicidal rate of 90% or more (almost completely withered)) |

The compounds below were run on Italian ryegrass (assay: Test Example 5: herbicidal effect by foliage application, plastic box (Table 20, symbol K)). Conditions: foliage application, AAH 320 g/ha, three weeks after application.
Format: in vivo, Italian ryegrass (Lolium multiflorum)
Summary of the method: (§2)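 Plants sown in sterilized diluvial soil and grown 14 days in a greenhouse at 25° C to 30° C, then sprayed on the foliage with the compound's emulsion diluted in water to a predetermined herbicide amount. Injury to weeds and crops scored three weeks after application on a visual rating scale.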

| SMILES | K: Italian ryegrass, herbicidal effect |
| --- | --- |
| Cc1nn(C)c(=O)c(-c2c(-c3ccc4c(c3)CCO4)sc3ccccc23)c1O [1-101] | 4 (Herbicidal rate of 70% or more and less than 90%) |
| CCCC(=O)Oc1c(C)nn(C)c(=O)c1-c1c(-c2ccc3c(c2)CCO3)sc2ccccc12 [1-102] | 3 (Herbicidal rate of 40% or more and less than 70%) |

These compounds were tested on windgrass (assay: Test Example 5: herbicidal effect by foliage application, plastic box (Table 20, symbol L)). Conditions: foliage application, AAH 320 g/ha, three weeks after application.
Format: in vivo, windgrass (Apera spica-venti)
Summary of the method: as §2

| SMILES | L: windgrass, herbicidal effect |
| --- | --- |
| Cc1nn(C)c(=O)c(-c2c(-c3ccc4c(c3)CCO4)sc3ccccc23)c1O [1-101] | 5 (Herbicidal rate of 90% or more (almost completely withered)) |
| CCCC(=O)Oc1c(C)nn(C)c(=O)c1-c1c(-c2ccc3c(c2)CCO3)sc2ccccc12 [1-102] | 0 (Herbicidal rate of 5% or less (almost no effect)) |

Each compound was assayed on velvetleaf (assay: Test Example 5: herbicidal effect by foliage application, plastic box (Table 20, symbol M)). Conditions: foliage application, AAH 320 g/ha, three weeks after application.
Format: in vivo, velvetleaf (Abutilon theophrasti)
Summary of the method: as §2

| SMILES | M: velvetleaf, herbicidal effect |
| --- | --- |
| Cc1nn(C)c(=O)c(-c2c(-c3ccc4c(c3)CCO4)sc3ccccc23)c1O [1-101] | 5 (Herbicidal rate of 90% or more (almost completely withered)) |
| CCCC(=O)Oc1c(C)nn(C)c(=O)c1-c1c(-c2ccc3c(c2)CCO3)sc2ccccc12 [1-102] | 5 (Herbicidal rate of 90% or more (almost completely withered)) |

What follows are compounds tested on redroot pigweed (assay: Test Example 5: herbicidal effect by foliage application, plastic box (Table 20, symbol N)). Conditions: foliage application, AAH 320 g/ha, three weeks after application.
Format: in vivo, redroot pigweed (Amaranthus retroflexus)
Summary of the method: as §2

| SMILES | N: redroot pigweed, herbicidal effect |
| --- | --- |
| Cc1nn(C)c(=O)c(-c2c(-c3ccc4c(c3)CCO4)sc3ccccc23)c1O [1-101] | 4 (Herbicidal rate of 70% or more and less than 90%) |
| CCCC(=O)Oc1c(C)nn(C)c(=O)c1-c1c(-c2ccc3c(c2)CCO3)sc2ccccc12 [1-102] | 5 (Herbicidal rate of 90% or more (almost completely withered)) |

Each compound was assayed on lambsquarters (assay: Test Example 5: herbicidal effect by foliage application, plastic box (Table 20, symbol O)). Conditions: foliage application, AAH 320 g/ha, three weeks after application.
Format: in vivo, lambsquarters (Chenopodium album)
Summary of the method: as §2

| SMILES | O: lambsquarters, herbicidal effect |
| --- | --- |
| Cc1nn(C)c(=O)c(-c2c(-c3ccc4c(c3)CCO4)sc3ccccc23)c1O [1-101] | 4 (Herbicidal rate of 70% or more and less than 90%) |
| CCCC(=O)Oc1c(C)nn(C)c(=O)c1-c1c(-c2ccc3c(c2)CCO3)sc2ccccc12 [1-102] | 4 (Herbicidal rate of 70% or more and less than 90%) |

What follows are compounds tested on chickweed (assay: Test Example 5: herbicidal effect by foliage application, plastic box (Table 20, symbol P)). Conditions: foliage application, AAH 320 g/ha, three weeks after application.
Format: in vivo, common chickweed (Stellaria media)
Summary of the method: as §2

| SMILES | P: chickweed, herbicidal effect |
| --- | --- |
| Cc1nn(C)c(=O)c(-c2c(-c3ccc4c(c3)CCO4)sc3ccccc23)c1O [1-101] | 5 (Herbicidal rate of 90% or more (almost completely withered)) |
| CCCC(=O)Oc1c(C)nn(C)c(=O)c1-c1c(-c2ccc3c(c2)CCO3)sc2ccccc12 [1-102] | 5 (Herbicidal rate of 90% or more (almost completely withered)) |
